Where two headings read alike, the source gives them in different places. One block for each compound: values may come before it.
Key:
HeLa cell line = experiment: Proliferation assay (HeLa cell line); type: cell-based; settings: Homo sapiens, 96 h, read-out: Biological Assay 2: Proliferation assay (HeLa cell line) median IC50
Description: (§1) Cultivated tumor cells (cells were ordered from ATCC, except HeLa-MaTu and HeLa-MaTu-ADR, which were ordered from EPO-GmbH, Berlin) were plated at a density of 1000 to 5000 cells/well, depending on the growth rate of the respective cell line, in a 96-well multititer plate in 200 μL of their respective growth medium supplemented 10% fetal calf serum. After 24 hours, the cells of one plate (zero-point plate) were stained with crystal violet (see below), while the medium of the other plates was replaced by fresh culture medium (200 μL), to which the test substances were added in various concentrations (0 μM, as well as in the range of 0.001-10 μM; the final concentration of the solvent dimethyl sulfoxide was 0.5%). The cells were incubated for 4 days in the presence of test substances. Cell proliferation was determined by staining the cells with crystal violet: the cells were fixed by adding 20 μl/measuring point of an 11% glutaric aldehyde solution for 15 minutes at room temperature. After three washing cycles of the fixed cells with water, the plates were dried at room temperature. The cells were stained by adding 100 μl/measuring point of a 0.1% crystal violet solution (pH 3.0). After three washing cycles of the stained cells with water, the plates were dried at room temperature. The dye was dissolved by adding 100 μl/measuring point of a 10% acetic acid solution. Absorption was determined by photometry at a wavelength of 595 nm. The change of cell number, in percent, was calculated by normalization of the measured values to the absorption values of the zero-point plate (=0%) and the absorption of the untreated (0 μm) cells (=100%). The IC50 values were determined by means of a 4 parameter fit using the company's own software.

DU145 cell line = experiment: Proliferation assay (DU145 cell line); type: cell-based; settings: Homo sapiens, DU-145, 96 h, read-out: Biological Assay 2: Proliferation assay (DU145 cell line) median IC50
Description: as §1

HeLa-MaTu-ADR cell line = experiment: Proliferation assay (HeLa-MaTu-ADR cell line); type: cell-based; settings: 96 h, read-out: Biological Assay 2: Proliferation assay (HeLa-MaTu-ADR cell line) median IC50
Description: as §1

NCI-H460 cell line = experiment: Proliferation assay (NCI-H460 cell line); type: cell-based; settings: Homo sapiens, read-out: Biological Assay 2: Proliferation assay (NCI-H460 cell line) median IC50
Description: as §1

[1] = target: T1, catalytic domain of human Bub1 (amino acids 704-1085) (Homo sapiens, UniProt O43683); experiment: Bub1 kinase assay (TR-FRET); type: biochemical
T1 construct: catalytic domain of human Bub1 (amino acids 704-1085); His6 (N); made in house; host or cells: Hi5 insect cells
Description: To this end, 100-fold concentrated compound solutions (in DMSO) were previously prepared by serial dilution (1:3.4) of 2 mM stocks in a clear low volume 384-well source microtiter plate (Greiner Bio-One, Frickenhausen, Germany), from which 50 nl of compounds were transferred into a black low volume test microtiter plate from the same supplier. […] The resulting mixture (5 μL final volume) was incubated at […] during 60 min., and the reaction was stopped by the addition of 5 μL of an aqueous EDTA-solution (50 mM EDTA, in 100 mM HEPES pH 7.5 and 0.2% (w/v) bovine serum albumin) which also contained the TR-FRET detection reagents (0.2 μM streptavidin-XL665 [Cisbio Bioassays, Codolet, France] and 1 nM anti-phosho-Serine antibody [Merck Millipore, cat. #35-001] and 0.4 nM LANCE EU-W1024 labeled anti-mouse IgG antibody [Perkin-Elmer, product no. AD0077, alternatively a Terbium-cryptate-labeled anti-mouse IgG antibody from Cisbio Bioassays can be used]). The stopped reaction mixture was further incubated 1 h at 22° C. in order to allow the formation of complexes between peptides and detection reagents. Subsequently, the amount of product was evaluated by measurement of the resonance energy transfer from the Eu-chelate-antibody complex recognizing the Phosphoserine residue to the streptavidin-XL665 bound to the biotin moiety of the peptide. […] IC50 values were calculated by fitting the normalized inhibition data to a 4-parameter logistic equation (Minimum, Maximum, IC50, Hill; Y=Max+(Min−Max)/(1+(X/IC50)Hill)).

Caco2 cell line = experiment: Proliferation assay (Caco2 cell line); type: cell-based; settings: Homo sapiens, Caco-2, 96 h, read-out: Biological Assay 2: Proliferation assay (Caco2 cell line) median IC50
Description: as §1

B16F10 cell line = experiment: Proliferation assay (B16F10 cell line); type: cell-based; settings: Mus musculus, B16-F10, 96 h, read-out: Biological Assay 2: Proliferation assay (B16F10 cell line) median IC50
Description: as §1

[2] = cervical cancer, 4 days incubation, crystal violet staining
[3] = TR-FRET, 10 μM ATP, 1 μM peptide substrate, read-out: Biological Assay 1: Bub1 kinase assay median IC50

T1 sequence (O43683 704-1085): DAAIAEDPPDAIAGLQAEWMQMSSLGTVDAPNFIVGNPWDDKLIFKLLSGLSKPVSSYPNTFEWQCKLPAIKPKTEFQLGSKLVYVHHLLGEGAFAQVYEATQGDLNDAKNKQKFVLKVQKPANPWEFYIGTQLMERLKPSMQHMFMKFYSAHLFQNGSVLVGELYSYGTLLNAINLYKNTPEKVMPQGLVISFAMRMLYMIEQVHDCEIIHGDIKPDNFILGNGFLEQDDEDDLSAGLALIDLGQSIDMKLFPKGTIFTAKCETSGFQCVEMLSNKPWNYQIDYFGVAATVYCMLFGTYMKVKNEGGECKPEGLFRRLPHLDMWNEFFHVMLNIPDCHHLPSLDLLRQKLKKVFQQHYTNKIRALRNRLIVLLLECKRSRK

- IC50 (HeLa cell line; [2]): 490 nM
- IC50 (DU145 cell line; DU145, prostate cancer, 4 days incubation, crystal violet staining): 360 nM
- IC50 (HeLa-MaTu-ADR cell line; HeLa-MaTu-ADR, cervical cancer, 4 days incubation, crystal violet staining): 1500 nM
- IC50 (NCI-H460 cell line; 96 h, NCI-H460, non-small cell lung cancer, 4 days incubation, crystal violet staining): 470 nM
- IC50 [1]: > 20000 nM
- IC50 (Caco2 cell line; Caco2, colon cancer, 4 days incubation, crystal violet staining): 1100 nM
- IC50 (B16F10 cell line; B16F10, melanoma, 4 days incubation, crystal violet staining): 250 nM
Structure (SMILES): Fc1ccccc1Cn1nc(-c2nc(Nc3ccncc3)cc(Nc3ccncc3)n2)c2ccccc21 [Example 2-1-2, 2-[1-(2-fluorobenzyl)-1H-indazol-3-yl]-N,N′-di(pyridin-4-yl)pyrimidine-4,6-diamine]

- IC50 (HeLa cell line): ≥ 10000 nM
- IC50 [1, 3]: 5.8 nM
Structure (SMILES): CCOc1cc(F)c(Cn2nc(-c3nc(N)c(NS(=O)(=O)CC)c(Nc4ccncc4)n3)c3ccccc32)c(F)c1 [Example 2-3-15, N-{4-amino-2-[1-(4-ethoxy-2,6-difluorobenzyl)-1H-indazol-3-yl]-6-(pyridin-4-ylamino)pyrimidin-5-yl}ethanesulfonamide]

- IC50 (HeLa cell line): ≥ 10000 nM
- IC50 [1, 3]: 8.7 nM
Structure (SMILES): CCOc1cc(F)c(Cn2nc(-c3nc(N)c(NS(=O)(=O)C(F)(F)F)c(Nc4ccncc4)n3)c3ccccc32)c(F)c1 [Example 2-3-16, N-{4-amino-2-[1-(4-ethoxy-2,6-difluorobenzyl)-1H-indazol-3-yl]-6-(pyridin-4-ylamino)pyrimidin-5-yl}-1,1,1-trifluoromethanesulfonamide]

- IC50 (HeLa cell line): 1200 nM
- IC50 [1, 3]: 8 nM
Structure (SMILES): CCOc1cc(F)c(Cn2nc(-c3nc4c(c(Nc5ccncc5)n3)OCC(=O)N4)c3ccccc32)c(F)c1 [Example 2-3-17, 2-[1-(4-ethoxy-2,6-difluorobenzyl)-1H-indazol-3-yl]-4-(pyridin-4-ylamino)-6H-pyrimido[5,4-b][1,4]oxazin-7(8H)-one]

- IC50 (HeLa cell line): ≥ 10000 nM
- IC50 [1, 3]: 19 nM
Structure (SMILES): CCOc1cc(F)c(Cn2nc(-c3nc4c(c(Nc5ccncn5)n3)OCC(=O)N4)c3ccccc32)c(F)c1 [Example 2-3-18, 2-[1-(4-ethoxy-2,6-difluorobenzyl)-1H-indazol-3-yl]-4-(pyrimidin-4-ylamino)-6H-pyrimido[5,4-b][1,4]oxazin-7(8H)-one]

- IC50 (HeLa cell line): 1500 nM
- IC50 (DU145 cell line): 3700 nM
- IC50 (HeLa-MaTu-ADR cell line): 1100 nM
- IC50 (NCI-H460 cell line; NCI-H460, 96 h): 4300 nM
- IC50 [1, 3]: 430 nM
- IC50 (Caco2 cell line): 420 nM
- IC50 (B16F10 cell line): 540 nM
Structure (SMILES): CCOc1cc(F)c(Cn2nc(-c3nc(Nc4ccncc4)c(OC)c(Nc4ccncc4)n3)c3ccccc32)c(F)c1 [Example 2-4-2, 2-[1-(4-ethoxy-2,6-difluorobenzyl)-1H-indazol-3-yl]-5-methoxy-N,N′-di(pyridin-4-yl)pyrimidine-4,6-diamine]

- IC50 (HeLa cell line; [2]): 3400 nM
- IC50 [1]: 640 nM
Structure (SMILES): CCOc1cc(F)c(Cn2nc(-c3nc(Nc4ccncc4)c(N4CCOCC4)c(Nc4ccncc4)n3)c3ccccc32)c(F)c1 [Example 2-4-3, 2-[1-(4-ethoxy-2,6-difluorobenzyl)-1H-indazol-3-yl]-5-(morpholin-4-yl)-N,N′-di(pyridin-4-yl)pyrimidine-4,6-diamine]

- IC50 (HeLa cell line): 940 nM
- IC50 (DU145 cell line): 1200 nM
- IC50 (HeLa-MaTu-ADR cell line): 390 nM
- IC50 (NCI-H460 cell line; NCI-H460, 96 h): 750 nM
- IC50 [1, 3]: 43 nM
- IC50 (Caco2 cell line): 480 nM
- IC50 (B16F10 cell line): 780 nM
Structure (SMILES): CCOc1cc(F)c(Cn2nc(-c3nc(Nc4ccncc4)nc(Nc4ccncc4)n3)c3ccccc32)c(F)c1 [Example 2-4-5, 6-[1-(4-ethoxy-2,6-difluorobenzyl)-1H-indazol-3-yl]-N,N′-di(pyridin-4-yl)-1,3,5-triazine-2,4-diamine]

- IC50 (HeLa cell line): 2500 nM
- IC50 [1, 3]: 220 nM
Structure (SMILES): CCOc1cc(F)c(Cn2nc(-c3nc(Nc4ccncc4)c(NC(=O)COC)c(Nc4ccncc4)n3)c3ccccc32)c(F)c1 [Example 2-4-8, N-{2-[1-(4-ethoxy-2,6-difluorobenzyl)-1H-indazol-3-yl]-4,6-bis(pyridin-4-ylamino)pyrimidin-5-yl}-2-methoxyacetamide]

- IC50 (HeLa cell line): ≥ 10000 nM
- IC50 [1, 3]: 22 nM
Structure (SMILES): CCOc1cc(F)c(Cn2nc(-c3nc(Nc4ccncn4)c(NC(=O)COC)c(Nc4ccncn4)n3)c3ccccc32)c(F)c1 [Example 2-4-9, N-{2-[1-(4-ethoxy-2,6-difluorobenzyl)-1H-indazol-3-yl]-4,6-bis(pyrimidin-4-ylamino)pyrimidin-5-yl}-2-methoxyacetamide]

- IC50 (HeLa cell line): ≥ 10000 nM
- IC50 [1, 3]: 710 nM
Structure (SMILES): CCOc1cc(F)c(Cn2nc(-c3nc(Nc4ccncc4)c(NS(=O)(=O)CC)c(Nc4ccncc4)n3)c3ccccc32)c(F)c1 [Example 2-4-10, N-{2-[1-(4-ethoxy-2,6-difluorobenzyl)-1H-indazol-3-yl]-4,6-bis(pyridin-4-ylamino)pyrimidin-5-yl}ethanesulfonamide]

- IC50 (HeLa cell line): 3500 nM
- IC50 [1, 3]: 4.1 nM
Structure (SMILES): CCOc1cc(F)c(Cn2nc(-c3nc(N)c(OCCO)c(Nc4ccncc4)n3)c3ccccc32)c(F)c1 [Example 2-5-1, 2-({4-amino-2-[1-(4-ethoxy-2,6-difluorobenzyl)-1H-indazol-3-yl]-6-(pyridin-4-ylamino)pyrimidin-5-yl}oxy)ethanol]

- IC50 (HeLa cell line): 1200 nM
- IC50 (DU145 cell line): 940 nM
- IC50 (HeLa-MaTu-ADR cell line): 280 nM
- IC50 (NCI-H460 cell line; NCI-H460, 96 h): 590 nM
- IC50 [1, 3]: 170 nM
- IC50 (Caco2 cell line): 400 nM
- IC50 (B16F10 cell line): 520 nM
Structure (SMILES): CCOc1cc(F)c(Cn2nc(-c3nc(Nc4ccncc4)c(OCCO)c(Nc4ccncc4)n3)c3ccccc32)c(F)c1 [Example 2-5-2, 2-({2-[1-(4-ethoxy-2,6-difluorobenzyl)-1H-indazol-3-yl]-4,6-bis-(pyridin-4-ylamino)pyrimidin-5-yl}oxy)ethanol]
